The term EC50 denotes the midpoint of the concentration-response curve.

Assay [1] has as its system L1210 cells infected with Mycoplasma hyorhinis (HYOR). Description: Cytostatic activity in mycoplasma-infected cells. The assay is classed as cell-based, mouse. An excerpt: (§1) Tumor cell cultures were infected with M. hyorhinis (ATCC 17981) and after two or more passages (to avoid bias by the initial inoculum) successful infection was confirmed using the MycoAlert™ mycoplasma detection kit (Lonza, Basel, Switzerland). Although this assay is only semi-quantitative, a maximal infection was observed 3 to 4 days after subcultivation of the mycoplasma-exposed cells. Chronically infected tumor cell lines are further referred to as Cell line.Hyor. All tumor cell cultures were maintained in Dulbecco's modified Eagle's medium (DMEM) (Invitrogen) supplemented with 10% fetal bovine serum (Biochrom AG, Berlin, Germany), 10 mm HEPES, and 1 mm sodium pyruvate (Invitrogen). Cells were grown at 37° C. in a humidified incubator with a gas phase containing 5% CO2.
(§2) The cytostatic activity of the test compounds was examined in mycoplasma-infected and uninfected cancer cell lines. When assaying the effect of M. hyorhinis infection, monolayer MCF7 and MCF7.Hyor cells were seeded in 48-well microtiter plates (Nunc™, Roskilde, Denmark) at 10,000 cells/well (Corning Inc., Corning, N.Y.) […]. After 24 h, the cells were exposed to different concentrations of test compound and allowed to proliferate for 72 h (to ensure sufficient cell proliferation and mycoplasma growth) after which the cells were trypsinized and counted using a Coulter counter (Analis, Suarlée, Belgium). Suspension cells (L1210, L1210.Hyor, FM3A, and FM3A.Hyor) were seeded in 96-well microtiter plates (Nunc) at 60,000 cells/well in the presence of different concentrations of test compound. The cells were allowed to proliferate for 48 h and then counted using a Coulter counter. The 50% inhibitory concentration (IC50) was defined as the compound concentration required to reduce cell proliferation by 50%.

Assay [2] relates to leukaemic stem cell compartment (Lin-/CD34+/CD38-/CD123+) within the KG1a cell line. Description: Immunophenotypic identification of the leukaemic stem cell compartment. The conditions noted are these: 72 h, LSC phenotype as percentage of all viable cells left, Control: 4%. The assay is classed as cell-based. How it is done:
A further comparative analysis of the toxicity of compounds in the KG1a cell line over an extended dose range was carried out, and the relative effect assessed of the compounds on the leukaemic stem cell compartment within the KG1a cell line, across the entire dose range. Thus, experimental tests were performed on certain compounds of the present invention to assess their ability to target cancer stem cells in a leukaemic cell line. The acute myeloid leukaemia (AML) cell line, KG1a, was employed to assess the relative effect of compounds on the stem cell compartment. The KG1a cell line was selected because it manifests a minor stem cell-like compartment with a distinct immunophenotype (Lin^−/CD34^+/CD38^−/CD123^+).
Cells of the KG1a cell line were maintained in RPMI medium (Invitrogen, Paisley, UK) supplemented with 100 units/ml penicillin, 100 μg/ml streptomycin and 20% foetal calf serum. Cells were subsequently aliquoted (10^5 cells/100 μl) into 96-well plates and were incubated at 37° C. in a humidified 5% carbon dioxide atmosphere for 72 h in the presence of nucleoside analogues and their respective phosphoramidates at concentrations that were experimentally determined for each series of compounds. In addition, control cultures were carried out to which no drug was added. Cells were subsequently harvested by centrifugation and were analyzed by flow cytometry using the Annexin V assay.
KG1a cells were cultured for 72 h in the presence of a wide range of concentrations of each compound assayed. Cells were then harvested and labelled with a cocktail of anti-lineage antibodies (PE-cy7), anti-CD34 (FITC), anti-CD38 (PE) and anti-CD123 (PERCP cy5). The sub-population expressing a leukaemic stem cell (LSC) phenotype were subsequently identified and were expressed as a percentage of all viable cells left in the culture. […]

A further assay relates to L1210. Description: Cytostatic activity, cell counting (Coulter counter). The assay is classed as cell-based. The conditions noted are these: Mus musculus, L1210; uninfected, 48 h proliferation; read-out: IC50 L1210.
Text: as §1, §2

For the next assay, the system named is MCF7. Described as above. The assay is classed as cell-based. The conditions noted are these: Homo sapiens, MCF7; uninfected, 72 h proliferation; read-out: IC50 MCF7.
Text: as §1, §2

Assay [3] has as its system MCF7 cells infected with Mycoplasma hyorhnis (HYOR). Description: Cytostatic activity in mycoplasma-infected cells. The assay is classed as cell-based, human.
Text: as §1, §2

For assay [4], the system named is MCF-7 Mammary epithelial adenocarcinoma. In words: In vitro viability assay, CellTiterGlo. The assay is classed as cell-based, human. Conditions: MCF-7, CellTiterGlo, 72 h. The gist of the method:
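Cells were treated for ~72 h with a 9-point, 3.16-fold dilution series, 198 μM to 19.9 nM final, in 0.5% DMSO final, in duplicate. Viability was read by CellTiterGlo luminescence.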
On the technique in general: In ATP-based viability assays light output follows the ATP content of the culture.

As to `Nc1nc(Cl)nc2c1ncn2[C@H]1C[C@H](O)[C@@H](CO)O1` [Cladribine, cladribine, reference compound], the values for the Loss of potency in assay [1] (L1210/HYOR versus L1210) and in assay [3] (MCF7/HYOR versus MCF7) were 8-fold and 25-fold, respectively. The IC50 amounted to 3000 nM in assay [1] (Mus musculus, L1210, 48 h, read-out: IC50 L1210/HYOR); 400 nM in the assay on L1210; 370 nM with MCF7; 9300 nM in assay [3] (Homo sapiens, MCF7, 72 h, read-out: IC50 MCF7/HYOR). In assay [2], the Stem cell % was determined as 6%. Besides, the EC50 in assay [4] (Homo sapiens, MCF7, read-out: EC50 (μM) Ab) is above 198 µM. Moreover, the “Top Inhibition (%)” value in assay [4] is recorded as 36.3%.
